What all share (details): 0.0630 kg/ha
Assay [1] concerns Wheat, Winter, cv Riband, Triticum aestivum. In words: Postemergence herbicidal evaluation, TRZAWR. The assay is classed as in vivo. Summed up: (§1)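 Test compounds, formulated in equal parts acetone and water plus 0.5% TWEEN 20, are applied by nozzle (40 psi) to seedlings about two weeks old at roughly 0.0157–0.500 kg/ha. Injury is scored 0–9 visually 4–5 weeks later, with multiple tests averaged.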

Assay [2] has as its system Ragweed, Common, Ambrosia artemisifolia. As to the kind of experiment: Postemergence herbicidal evaluation, AMBEL. It counts as in vivo, L. A digest of the protocol:
as §1

Assay [3] relates to Velvetleaf, Abutilon theophrasti. As to the kind of experiment: Postemergence herbicidal evaluation, ABUTH. It counts as in vivo, Medic. Summed up:
as §1

Assay [4] has as its system Sicklepod, Cassia obtusifolia. As to the kind of experiment: Postemergence herbicidal evaluation, CASOB. The assay is classed as in vivo, L. Summed up:
as §1

Assay [5] concerns Lambsquarters, Common, Chenopodium album. In words: Postemergence herbicidal evaluation, CHEAL. The assay is classed as in vivo, L. A digest of the protocol:
as §1

Assay [6] has as its system Morningglory, Ivyleaf, Ipomoea hederacea. As to the kind of experiment: Postemergence herbicidal evaluation, IPOHE. It counts as in vivo, (L.) Jacq. Summed up: as §1
In assay [7] the test system is Barnyardgrass, Echinochloa crus-galli. In words: Postemergence herbicidal evaluation, ECHCG. The assay is classed as in vivo, (L.) Beau. A digest of the protocol: as §1
Another assay relates to Corn, Field, Zea mays. As to the kind of experiment: Postemergence herbicidal evaluation, ZEAMX. The assay is classed as in vivo, L. A digest of the protocol: as §1
The test system of a further assay is Galium, Galium aparine. As to the kind of experiment: Postemergence herbicidal evaluation, GALAP. It counts as in vivo. Summed up:
as §1

The test system of assay [8] is Soybean, Williams, Glycine max. As to the kind of experiment: Postemergence herbicidal evaluation, GLXMAW. The assay is classed as in vivo, (L.) Merr. cv Williams. Summed up: as §1
Assay [9] deals with Rice, Tebonnet, Oryza sativa. As to the kind of experiment: Postemergence herbicidal evaluation, ORYSAT. It counts as in vivo, (L.) Tebonnet. Summed up:
as §1

Assay [10] deals with Foxtail, Green, Setaria viridis. As to the kind of experiment: Postemergence herbicidal evaluation, SETVI. The assay is classed as in vivo, (L.) Beau. A digest of the protocol:
as §1

The values below come from patent US6156700A, “3-(1,2-Benzisothiazol- and isoxazol-5-yl)-2,4(1H,3H)-pyrimidinedione or thione and 3-(1,2-benzisothiazol- and isoxazol-5-yl)-4(3H)-pyrimidinone or thione herbicidal agents” (American Cyanmid Company, priority 1998, dated 2000).

As to `Cc1ccc(OCC(=O)OC2CCCC2)c(-c2nsc3ccc(-n4c(=O)cc(C(F)(F)F)n(C)c4=O)cc23)c1` [Compound 84, Cyclopentyl {{2-{5-[3,6-dihydro-3-methyl-2,6-dioxo-4-(trifluoromethyl)-1(2H)-pyrimidinyl)-1,2-benzisothiazol-3-yl}-p-tolyl}oxy}acetate], the “herbicide rating (0-9)” value in [1] stood at 8.0; in [2] it was 9.0; in assay [3], 9.0; in assay [4], 4.0; in [5], 9.0; in assay [6], 9.0. The “herbicide rating (0-9)” value in assay [7] is on record as 9.0; in the assay on Corn, Field, Zea mays, 7.5; in the assay on Galium, Galium aparine, 9.0; in assay [8], 8.0; in [9], 8.0; in [10], 9.0.
`Cc1ccc(OCC(=O)OC(C)C(C)(C)C)c(-c2nsc3ccc(-n4c(=O)cc(C(F)(F)F)n(C)c4=O)cc23)c1` (stereo not drawn) [Compound 85, 1,2,2-Trimethylpropyl {{2-{5-[3,6-dihydro-3-methyl-2,6-dioxo-4-(trifluoromethyl)-1(2H)-pyrimidinyl]-1,2-benzisothiazol-3-yl}-p-tolyl}oxy}acetate]: the “herbicide rating (0-9)” value is reported as 5.5 in [1]; 2.0 in assay [2]; 5.0 in [3]; 2.0 in assay [4]; 5.0 in assay [5]; 9.0 in [6]. In addition, the “herbicide rating (0-9)” value came out at 7.0 in assay [7]; 6.5 with Corn, Field, Zea mays; 5.0 in the assay with Galium, Galium aparine; 7.0 in assay [8]; 5.0 in assay [9]; 8.0 in assay [10].
